Laboratory results taken from patent US11578055B2, “Triazacyclododecansulfonamide (“TCD”)-based protein secretion inhibitors” (KEZAR LIFE SCIENCES, priority 2018, dated 2023).
pEC50, pIC50: −log10 of the molar value. Where two headings read alike, the source gives them in different places.

Tests used:
[1] = test system: multiple myeloma cell line U266B1; experiment: U266 Cell Viability Assay; assay type: cell-based, human; conditions: Homo sapiens, U-266, 48 hr
Procedure, shortened: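 U266B1 myeloma cells in RPMI 1640 with 10% FBS were treated with compound dilutions for 48 h at 37° C, 5% CO2. Viability was read as CellTiter-Glo luminescence. Data for structures drawn without stereochemistry refer to stereoisomer mixtures.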

TNFα = experiment: Human PBMC Cytokine Assay: TNFα; assay type: cell-based; conditions: anti-CD3/CD28 stimulation, 24 hours
Protocol: (§1) Human PBMC were freshly isolated from whole blood collections of 3 normal donors utilizing density gradient centrifugation followed by red blood cell lysis. PBMC from each donor were assayed separately. Cells were suspended in RPMI 1640 media supplemented with 5% fetal bovine serum, 2 mM L-glutamine, 10 mM HEPES, and 1× penicillin/streptomycin. PBMC were seeded at 200,000 cells/well in 96-well round-bottom plates either without stimulation or with stimulation by lipopolysaccharide (LPS, 1 μg/mL) or antibodies against human CD3 (plate-bound, 2 μg/mL) and human CD28 (soluble, 2 μg/mL). Serial dilutions of compound in DMSO/media were simultaneously added and PBMC were incubated at 37° C., 5% CO2 for 24 hours. After 24 hours, plates were centrifuged and half of the supernatant volume removed for cytokine analysis by electrochemiluminescent immunoassay (U-PLEX® Biomarker Multiplex, Meso Scale Discovery). For viability analysis, CellTiter-Glo® (Promega) was added to the remaining material in each well and quantified via luminescent plate reader.

IL-6 = experiment: Human PBMC Cytokine Assay: IL-6; assay type: cell-based; conditions: LPS stimulation, 24 hours
Protocol: as §1

IL-2 = experiment: Human PBMC Cytokine Assay: IL-2; assay type: cell-based; conditions: anti-CD3/CD28 stimulation, 24 hours
Protocol: as §1

[2] = In Vitro Microsome Stability Assay (mouse); assay type: in vitro ADME
Procedure, shortened: (§2)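 The value reported is the percentage of parent left after 30 min, calculated from analyte/IS peak-area ratios relative to time zero by LC-MS/MS. Incubations ran at 37° C in 0.1 M potassium phosphate with NADPH and microsomes (stock 20 mg/mL), with compound added from a 0.25 mM DMSO stock. Acetonitrile containing IS stopped the reactions.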

[3] = test system: full length IL-2 (amino acids 1-153) fused to Gaussia Luciferase; experiment: Dox Induced IL2-FL-Gluc Assay; assay type: cell-based; conditions: 24 hr, read-out: 24 hr Dox Inducible IL2FLGluc 293FRT/TO: Mean IC50
Procedure, shortened: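 Flp-In 293 T-REx stable line expressing full-length IL-2 (aa 1-153) with C-terminal Gaussia luciferase fusion under doxycycline-inducible control. Cells plated the day before; compound dilutions added in DMSO/media containing doxycycline, incubated at 37° C, 5% CO2.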

IFNγ = experiment: Human PBMC Cytokine Assay: IFNγ; assay type: cell-based; conditions: anti-CD3/CD28 stimulation, 24 hours
Protocol: as §1

[4] = In Vitro Microsome Stability Assay (monkey); assay type: in vitro ADME
Procedure, shortened: as §2

GM-CSF = experiment: Human PBMC Cytokine Assay: GM-CSF; assay type: cell-based; conditions: anti-CD3/CD28 stimulation, 24 hours
Protocol: as §1

[5] = test system: full length TNFα (amino acids 1-233) fused to Gaussia Luciferase; experiment: Dox Induced TNFα-FL-Gluc Assay; assay type: cell-based; conditions: 24 hr, read-out: 24 hr Dox Inducible TNFaFLGluc 293FRT/TO: Mean IC50
Procedure, shortened: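 Stable Flp-In 293 T-REx line expressing doxycycline-inducible full-length TNFα fused to Gaussia luciferase; cells plated the day before, then treated with compound dilutions in doxycycline-containing medium at 37° C, 5% CO2. Unspecified stereocentres mean stereoisomer mixtures were tested.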

Human PBMC = Human PBMC CellTiter-Glo viability; assay type: cell-based; conditions: no stimulation, 24 hours
Protocol: as §1

[6] = mouse liver microsomes, 30 min w/ NADPH
[7] = monkey liver microsomes, 30 min w/ NADPH

pEC50 ([1]; U266, read-out: 48 hr U266 Viability Celltiter-Glo: Mean EC50)	IC50 (TNFα) [nM]	IC50 (IL-6) [nM]	IC50 (IL-2) [nM]	Liver Microsome Stability-% Left after 30 min w/ NADPH (%) Mouse ([2]; mouse, 30 min, NADPH) [%]	pIC50 ([3]; 293FRT/TO)	IC50 (IFNγ) [nM]	Liver Microsome Stability-% Left after 30 min w/ NADPH (%) Monkey ([4]; monkey, 30 min, NADPH) [%]	IC50 (GM-CSF) [nM]	pIC50 ([5]; 293FRT/TO)	pEC50 ([1]; U266, Celltiter-Glo)	Liver Microsome Stability-% Left after 30 min w/ NADPH (%) Mouse [2, 6] [%]	pIC50 ([3]; Dox inducible, 293FRT/TO cells)	Liver Microsome Stability-% Left after 30 min w/ NADPH (%) Monkey [4, 7] [%]	pIC50 ([5]; Dox inducible, 293FRT/TO cells)	Structure (SMILES)	IC50 (Human PBMC) [nM]
< 4.60	82	61	31	49.6	7.30	152	32.7	165	6.31						C[C@H]1CN(S(=O)(=O)c2ccc(N(C)C)cc2)CCCN(CC2CCCCC2)CCCN(S(=O)(=O)N2CCc3cc(Cl)ccc3C2)C1 [A87]	> 25000
	17	12	8			21		25		< 4.60	28	7.67	14.2	6.72	COc1cc(F)ccc1N1CCN(S(=O)(=O)N2CCCN(CC3CCCCC3)CCCN(S(=O)(=O)c3ccc(N(C)C)cc3)C[C@H](C)C2)CC1 [A137]	> 25000
										< 4.60	4.55	6.51	3.98	5.91	C[C@H]1CN(S(=O)(=O)c2ccc(N(C)C)cc2)CCCN(CC2CCCCC2)CCCN(S(=O)(=O)N2CCc3c(C#N)cccc3C2)C1 [A151, 2-{[(3S)-9-(cyclohexylmethyl)-5-[4-(dimethylamino)benzenesulfonyl]-3-methyl-1,5,9-triazacyclododecan-1-yl]sulfonyl}-1,2,3,4-tetrahydroisoquinoline-5-carbonitrile]	
	13	24	10			19		19		< 4.60	11.6	7.90	2.8	6.81	COc1cc(F)ccc1N1CCN(S(=O)(=O)N2CCCN(CC3CCCCC3)CCCN(S(=O)(=O)c3ccc(N(C)C)cc3)C[C@H](C)C2)C[C@H]1C [A177, 4-{[(3S)-9-(cyclohexylmethyl)-5-{[(3 R)-4-(4-fluoro-2-methoxyphenyl)-3-methylpiperazin-1-yl]sulfonyl}-3-methyl-1,5,9-triazacyclododecan-1-yl]sulfonyl}-N,N-dimethylaniline]	> 25000
